Test results published in publication PMC10279527, “Structural basis of metabolite transport by the chloroplast outer envelope channel OEP21” (Nature Structural & Molecular Biology, 2023).
Values joined by “and” are separate entries in the source; they are usually repeats but may differ in a detail not shown here. Equal entries are not always repeated. Where two headings read alike, the source gives them in different places. Each block holds one compound with its values, some of them ahead of it.

What was measured:
[1] = biological target: T1, OEP21 (Pisum sativum, UniProt Q9SM57); assay: CD-detected thermal melting of OEP21 in presence of metabolites; assay type: binding, garden pea; parameters: made in house; details: for Melting point: ED Fig. 4a, OEP21 with 0.5 mM metabolite, CD at 215 nm, Apo 58.5; for raw CD / rel CD: 500 uM
[2] = biological target: T1, OEP21; assay: Isothermal titration calorimetry (ITC) of OEP21 with metabolites; assay type: binding, garden pea; parameters: made in house; details: for binding affinity for OEP21 (in words): ITC or FP; for fold increase in Kd: individual determination KD1; for fold increase in Kd / fold increase in Kd, mean values: relative to ATP pH7
[3] = biological target: T1, OEP21; assay: Amide hydrogen exchange NMR (CLEANEX) of OEP21 L5; parameters: made in house; species or system garden pea; details: 2 mM ATP or 5 mM GAP; 303 K, pH 6.0
[4] = ITC of ATP, GAP or phosphate with magnesium; assay type: binding; details: 10 mM HEPES pH7.0, 20 mM NaCl, read-out: KD for Mg^2+
Method: ITC experiments were performed with a MicroCal PEAQ-ITC instrument (Malvern Panalytical) at 25 °C in 10 mM HEPES pH 7.0, 20 mM NaCl, 0.5 mM EDTA, 1 mM DTT, 50 mM LDAO. […] Curve fitting and data analysis were done with the Malvern PEAQ-ITC software.
(a) (left) 2D-[^15N,^1H]-TROSY NMR spectra of 400 µM ^2H,^15N-labeled OmpX in LDAO micelles in 20 mM sodium phosphate, pH6.0, 50 mM NaCl, 0.5 mM EDTA and the indicated concentrations of D-GAP at 30 °C and 1.2 GHz magnetic field. (right) 2D-projections along the ^1H dimension of the 2D-spectra shown on (left). […] (right) Relative NMR peak intensities derived from the data in (left) and (middle). Buffer: 10 mM Na-phosphate pH7.0, 20 mM NaCl, 7% (v/v) D2O. […] (right) 150 mM MgCl2 was titrated into 15 mM potassium phosphate (Pi). Buffer conditions for all experiments were: 10 mM HEPES pH7.0, 20 mM NaCl.

[5] = tested on: OEP21 variants (single point mutations, ΔL5); assay: Fluorescence polarization binding of MANT-ATP to OEP21 variants;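 also: KD obtained by fitting fluorescence polarization data to a one-site binding model, each experiment run in triplicate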; parameters: species or system garden pea; details: FP with MANT-ATP, Fig. 3e; 14 point variants and ΔL5
[6] = biological target: T2, OEP21 wt (Pisum sativum, UniProt Q9SM57); assay: SEC metabolite translocation assay with OEP21 WT proteoliposomes;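 as to all read-outs here: control is liposomes reconstituted without protein, prepared alongside. Molecule content inside liposomes measured after Triton X-100 disruption. PD10 SEC runs done with or without ATP and/or MgCl2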; assay type: biochemical, garden pea; details: for passage through the OEP21 channel (in words): proteoliposomes, SEC, deadtime ~4 min; for Relative content (% of mean Control): Fig. 4f, WT proteoliposomes, molecules of increasing molecular weight
T2 construct: made in house

[7] = biological target: T1, OEP21; assay: Trypsin cleavage of recombinant OEP21 in liposomes; parameters: made in house; species or system garden pea; details: 10 µM OEP21 in liposomes; 5 mM metabolite
Method: Sample aliquots were quenched by addition of 1 mM PMSF at the indicated time points and were analyzed by SDS–PAGE.

[8] = biological target: T2, OEP21 wt; assay: Fluorescence polarization (FP) binding of MANT-ATP (or MANT-GMPPNP) to OEP21-WT, also at varied NaCl and MgCl2; parameters: species or system garden pea; details: FP
Method: (§1) FP assays were performed on a spectrofluorometer FP-8300 (Jasco) equipped with a water bath cooling system MCM-100 (Jasco). […] A buffer containing no EDTA was used when MgCl2 was present. […] KD values were derived by fitting the data to a one-site binding model. […] All FP experiments were performed as triplicates.

[9] = biological target: T2, OEP21 wt; assay: NMR titrations (2D-[15N,1H]-TROSY) of OEP21 with metabolites; assay type: binding, garden pea
[10] = biological target: T2, OEP21 wt; assay: FP competition with preformed MANT-ATP/OEP21-WT complex; assay type: binding, garden pea; details: read-out: IC50 (dissociation of MANT-ATP); OEP21-WT; 1 µM MANT-ATP, 1 µM protein
Method: as §1

Compound: O=C(O)[C@H](O)COP(=O)(O)O [3PGA]
Melting point [1]: 58.78 ｡C

Compound: Nc1ncnc2c1ncn2C1OC(COP(=O)(O)OP(=O)(O)OP(=O)(O)O)C(O)C1O (centres unmarked) [ATP]
amide hydrogen exchange rates in L5 in the complex (in words) [3]: reduced | raw CD ([1]; 21 °C): -26.3487 | raw CD ([1]; 58 °C): -23.5155 | raw CD ([1]; 63 °C): -19.1017 | raw CD ([1]; 66 °C): -5.813 | rel CD ([1]; 66 °C): 0.1482 | rel CD ([1]; 68 °C): 0.08235 | raw CD ([1]; 69 °C): -3.142 | raw CD ([1]; 70 °C): -4.096 | raw CD ([1]; 71 °C): -2.84 | raw CD ([1]; 71.5 °C): -3.658 | raw CD ([1]; 74 °C): -2.072 | rel CD ([1]; 76 °C): 0.01626 | raw CD ([1]; 77 °C): -2.742 | rel CD ([1]; 77 °C): 0.01867 | raw CD ([1]; 79 °C): -1.936 | raw CD ([1]; 79.5 °C): -2.866 | raw CD ([1]; 80 °C): -3 | raw CD ([1]; 82 °C): -1.776 | rel CD ([1]; 82 °C): -0.02212 | raw CD ([1]; 83.5 °C): -1.529 | raw CD ([1]; 84 °C): -3.442 | rel CD ([1]; 87 °C): -0.01175 | rel CD ([1]; 87.5 °C): 0.006103 | rel CD ([1]; 88 °C): 0.001624 | raw CD ([1]; 88.5 °C): -3.139 | rel CD ([1]; 90 °C): -0.0159 | rel CD ([1]; 90.5 °C): -0.01305 | rel CD ([1]; 92 °C): 0.001685 | rel CD ([1]; 93 °C): -0.01165 | raw CD ([1]; 95 °C): -2.644 | rel CD ([1]; 97 °C): -0.003556 | raw CD ([1]; 98 °C): -2.053 | raw CD ([1]; 100 °C): -2.629 | Melting point [1]: 63.08 ｡C | Kd [4]: 0.05 mM and 0.054 mM | binding stoichiometry n ([2]; ITC, Fig. 3a): 1.14 ± 0.16 | deviation of KD of OEP21 variants from the wild-type value [5]: ≤ 50% | passage through the OEP21 channel (in words) [6]: passed through the channel | effect on trypsin digestion of L5 (in words) [7]: slightly protected L5 from proteolytic digestion | decrease in affinity ([8]; 50 mM MgCl2 versus 0): ~50 fold | drop in binding affinity ([8]; 2 M NaCl versus 0): ~120 fold

Compound: O=S1(=O)OC(c2cc(Br)c(O)c(Br)c2)(c2cc(Br)c(O)c(Br)c2)c2ccccc21 [Bromophenol Blue, reference compound]
Relative content (% of mean Control) ([6]; Mean): 44.3038 % of mean Control | Relative content (% of mean Control) ([6]; single replicates): 45.5696 % of mean Control and 43.6709 % of mean Control (2×) | passage through the OEP21 channel (in words) [6]: lower translocation efficiency

Compound: NC(=O)C1=CN([C@@H]2O[C@H](COP(=O)(O)OP(=O)(O)OC[C@H]3O[C@@H](n4cnc5c(N)ncnc54)[C@H](O)[C@@H]3O)[C@@H](O)[C@H]2O)C=CC1 [NADH]
Melting point [1]: 58.83 ｡C | Relative content (% of mean Control) ([6]; Mean): 33.6575 % of mean Control | Relative content (% of mean Control) ([6]; single replicates): 33.3345 % of mean Control and 33.6928 % of mean Control and 33.9453 % of mean Control

Compound: NC(=O)C1=CN([C@@H]2O[C@H](COP(=O)(O)OP(=O)(O)OC[C@H]3O[C@@H](n4cnc5c(N)ncnc54)[C@H](OP(=O)(O)O)[C@@H]3O)[C@@H](O)[C@H]2O)C=CC1 [NADPH]
Melting point [1]: 60.17 ｡C | Relative content (% of mean Control) ([6]; Mean): 30.937 % of mean Control | Relative content (% of mean Control) ([6]; single replicates): 31.31 % of mean Control and 32.4982 % of mean Control and 29.0027 % of mean Control

Compound: O=P(O)(O)O [Phosphate]
Kd ([4]; listed as Pi): 9 ± 1 mM | Kd [4]: ~9 mM | Kd ([9]; individual determinations KD1-KD12, read-out: Kd): 8.73 mM and 3.66 mM and 15 mM and 9.02 mM and 8.71 mM and 10.4 mM and 5.02 mM and 3.5 mM and 11 mM and 15.9 mM and 20.7 mM and 4.68 mM | Kd ([9]; mean, read-out: Kd, mean values): 9.7 mM | Relative content (% of mean Control) ([6]; Mean): 13.1637 % of mean Control | Relative content (% of mean Control) ([6]; single replicates): 11.8165 % of mean Control and 12.9577 % of mean Control and 14.7171 % of mean Control | IC50 [10]: ~10 mM

Compound: O=c1ccn([C@@H]2O[C@H](COP(=O)(O)OP(=O)(O)OP(=O)(O)O)[C@@H](O)[C@H]2O)c(=O)[nH]1 [UTP]
Melting point [1]: 63.58 ｡C | fold increase in Kd [2]: 2.55 | fold increase in Kd, mean values [2]: 2.55

Compound: Vitamin B12
Relative content (% of mean Control) ([6]; Mean): 99.2057 % of mean Control | Relative content (% of mean Control) ([6]; single replicates): 105.56 % of mean Control and 96.0286 % of mean Control (2×) | passage through the OEP21 channel (in words) [6]: cannot pass

Compound: lysozyme: the ~14-kDa protein lysozyme [reference compound]
passage through the OEP21 channel (in words) [6]: cannot pass

Further lines, with some results ahead:

Melting point [1]: 59.2 ｡C | binding affinity for OEP21 (in words) ([2]; Fig. 3c): markedly reduced | fold increase in Kd [2]: 10.8 | fold increase in Kd, mean values [2]: 10.8
Compound: Nc1ncnc2c1ncn2[C@@H]1O[C@H](COP(=O)(O)OP(=O)(O)O)[C@@H](O)[C@H]1O [ADP]

Melting point [1]: 59.12 ｡C | binding affinity for OEP21 (in words) ([2]; Fig. 3c): no binding could be detected | Fold increase in KD ([2]; Fig. 3c, n.b. = no binding could be detected by ITC): n.b. | fold increase in Kd, mean values [2]: 0
Compound: Nc1ncnc2c1ncn2[C@@H]1O[C@H](COP(=O)(O)O)[C@@H](O)[C@H]1O [AMP]

Melting point [1]: 63.71 ｡C | fold increase in Kd [2]: 1.35 | fold increase in Kd, mean values [2]: 1.35
Compound: Nc1ccn([C@@H]2O[C@H](COP(=O)(O)OP(=O)(O)OP(=O)(O)O)[C@@H](O)[C@H]2O)c(=O)n1 [CTP]

Relative content (% of mean Control) ([6]; Mean): 46.1734 % of mean Control
Compound: Cc1cc2nc3c(=O)[nH]c(=O)nc-3n(C[C@H](O)[C@H](O)[C@H](O)COP(=O)(O)OP(=O)(O)OC[C@H]3O[C@@H](n4cnc5c(N)ncnc54)[C@H](O)[C@@H]3O)c2cc1C [FAD]
Relative content (% of mean Control) ([6]; single replicates): 47.6939 % of mean Control and 45.5112 % of mean Control and 45.315 % of mean Control

Melting point [1]: 66.48 ｡C | fold increase in Kd [2]: 0.59 | fold increase in Kd, mean values [2]: 0.59
Compound: Nc1nc2c(ncn2[C@@H]2O[C@H](COP(=O)(O)OP(=O)(O)OP(=O)(O)O)[C@@H](O)[C@H]2O)c(=O)[nH]1 [GTP]

Melting point [1]: 58.37 ｡C
Compound: C=C(OP(=O)(O)O)C(=O)O [PEP]
